The text below walks through data of US7297759B2, “Peptides for increasing transfection efficiency” (Welgene, Inc., priority 2002, dated 2007).

In one experiment the test system is HeLa cells. In words: Luciferase transfection efficiency of triple complex in HeLa cells. The note with it: for luciferase activity for various peptides: DNA:peptide:DP liposomes 1:4:4 (w/w/w), compared to Tat and Sc-Tat control peptides, FIG. 9A. The experiment is classed as cell-based. Here is the method: In order to test transfection efficiency, the TatC peptide was precomplexed with the pcDNA3-luciferase vector DNA in 50 ul OPTI-MEM medium and was incubated for 5 minutes at room temperature. The DP liposomes was prepared in a 50 ul OPTI-MEM medium and added to the preformed complex of the TatC peptide and pcDNA3-luciferase vector DNA. The ratio of each component in the triple complex of the TatC peptide/DNA/DP liposomes was adjusted to 3:1:5 respectively. The triple complex of TatC peptide/DNA/DP liposomes was incubated for 10 minutes at room temperature and used for transfection into cells. After 5 hr incubation, 300 ul/well of the OPTI-MEM medium containing 20% Fetal Bovine Serum (FBS) was added into each transfection well. Further incubation for 16 hours was carried out before measuring transfection efficiency in luciferase activity using a luciferase assay kit (Promega, USA). To check luciferase activity of the pcDNA3-luciferase vector DNA, the following procedure was adopted. Cells were washed with PBS buffer (without Mg^2+ or Ca^2+) and lysed in 100 μl/well of 1×CCLR solution (Cell culture Lysis Reagent, 25 mM Tris-phosphate [pH 7.8], 2 mM DTT, 2 mM 1,2-diaminocyclohexane-N,N,N′,N′-tetraacetic acid, 10% glycerol, 1% Triton X-100). Cell lysates was centrifuged at 12,000×g for 1 minute and 50 ul supernatant was carefully harvested without disturbing the cell pellet. The cell lysates then mixed with 20 μl Luciferase Assay reagent. Luciferase activity was tested using a luminometer (Berthold detection systems, Sirius, Germany). As a negative control, the DP liposomes alone. […]
To examine transfection efficiency in the presence or absence of serum, the TatC/DNA(pcDNA3-luc)/DP liposomes triple complex of the present invention was transfected into HeLa and K562 cells in a medium with or without 10% FBS (FIG. 13A and B). A complex of DNA and liposomes was used as a negative control.

For experiment [1], the system named is 293, HT-29, HL-60, MCF-7, A549, NC1-H1299, WI-38VA13, HepG2 and Hep3B cells. In words: Luciferase transfection efficiency of triple complex in 9 different cell lines. The experiment is classed as cell-based, human. As to conditions: various ratios.
The test system of another experiment is cells. Briefly: Luciferase transfection efficiency of TatC peptide/DNA/cationic liposome triple complex (FIG. 1, FIG. 2). It counts as cell-based. How it is done:
In order to test transfection efficiency, the TatC peptide was precomplexed with the pcDNA3-luciferase vector DNA in 50 ul OPTI-MEM medium and was incubated for 5 minutes at room temperature. The DP liposomes was prepared in a 50 ul OPTI-MEM medium and added to the preformed complex of the TatC peptide and pcDNA3-luciferase vector DNA. The ratio of each component in the triple complex of the TatC peptide/DNA/DP liposomes was adjusted to 3:1:5 respectively. The triple complex of TatC peptide/DNA/DP liposomes was incubated for 10 minutes at room temperature and used for transfection into cells. After 5 hr incubation, 300 ul/well of the OPTI-MEM medium containing 20% Fetal Bovine Serum (FBS) was added into each transfection well. Further incubation for 16 hours was carried out before measuring transfection efficiency in luciferase activity using a luciferase assay kit (Promega, USA). To check luciferase activity of the pcDNA3-luciferase vector DNA, the following procedure was adopted. Cells were washed with PBS buffer (without Mg^2+ or Ca^2+) and lysed in 100 μl/well of 1×CCLR solution (Cell culture Lysis Reagent, 25 mM Tris-phosphate [pH 7.8], 2 mM DTT, 2 mM 1,2-diaminocyclohexane-N,N,N′,N′-tetraacetic acid, 10% glycerol, 1% Triton X-100). Cell lysates was centrifuged at 12,000×g for 1 minute and 50 ul supernatant was carefully harvested without disturbing the cell pellet. The cell lysates then mixed with 20 μl Luciferase Assay reagent. Luciferase activity was tested using a luminometer (Berthold detection systems, Sirius, Germany). As a negative control, the DP liposomes alone.
The TatC peptide/DNA (pcDNA3-luciferase vector)/LFA liposome complex was prepared as described in Example 3.1. Transfection was carried out according to the manufacturer's recommended protocol (Life Technologies, USA), and was tested for luciferase activity.
To deteremine if enhanced transfection efficiency could be attained, a TatC Peptide/DNA/cationic liposomes triple complex were formed by mixing them in different order. […]

For another experiment, the system named is WRT7/P2 cells. Briefly: Cellular uptake of FITC-labeled oligonucleotide. The note with it: TatC peptide/DNA/LFA triple complex compared to LFA liposomes alone; FIG. 8. The experiment is classed as cell-based, rat. How it is done: Next, transfection efficiency of nucleic acid by the triple complex was tested for oligonucleotides labeled with FITC at both ends. Oligonucleotides were complexed with the TatC peptide and LFA liposomes and were transfected to a rat monocytic cell line, WRT7/P2. The transfected cells were then assayed for FITC-fluorescence. We observed that cellular uptake of the oligonucleotides with the TatC peptide/DNA/LFA triple complex was much higher than delivered with LFA liposomes alone (FIG. 8). […] Therefore, the TatC peptide delivery system of the present invention may be effectively utilized for efficient delivery into cells regardless of the types of DNA to be delivered.

In a further experiment the test system is kidney of SD rats. Briefly: In vivo delivery of LacZ plasmid by retrograde ureteral injection, X-gal staining of kidney sections. On the set-up: species or system rat. The note with it: TatC:DNA:DP=4:1:4, retrograde injection, male SD rats, compared to DNA/liposome or DNA alone, FIG. 16. How it is done: To test the transfection efficiency of the peptide/DNA/liposomes triple complex in vivo, the following experiment was performed. Male Sprague-Dawley (SD) rats (Hamamatsu, Shizuoka, Japan) were supplied from SLC and were housed in groups of 6 with free access to standard chow and water. Male SD rats, weighing 200-250 g, were used in these experiments. After anesthesia by the intraperitoneal injection of pentobarbital (5 mg/100 g body weight), the left kidney was exposed via an abdominal midline incision. Rats were subjected to ureteral ligation proximal to the left kidney, which was followed by retrograde injection of the triple complex (TatC: DNA: DP=4:1:4) using a 24 gauge catheter syringe. Kidneys were harvested 24 hours after injection of the triple complex. and embedded in a Tissue-Tek™ OCT compound (Miles, Elkhart, Ill.) under liquid nitrogen. Tissue blocks of the perfusion-fixed kidney with 4% paraformaldehyde were cryosectioned to 10 μm thickness and mounted on Poly-Prep™ slides (Sigma, St. Louise, Mo.). After dissection of individual kidneys, kidney sections were fixed with 0.05% glutaraldehyde in PBS by perfusion for 15 min, and incubated in X-gal solution (1.5 mM potassium ferricyanide, 1.5 mM potassium ferrocyanide, and 1% X-gal) at 37° C. for 4 h. Tissue sections of 4 μm were counterstained with hematoxylin and examined using a microscope at 400 fold magnification.

Another experiment deals with K562 cells. Briefly: Luciferase transfection efficiency of triple complex in K562 cells. The experiment is classed as cell-based. The note with it: TatC/DNA(pcDNA3-luc)/DP liposomes, FIG. 13B. Here is the method: In order to test transfection efficiency, the TatC peptide was precomplexed with the pcDNA3-luciferase vector DNA in 50 ul OPTI-MEM medium and was incubated for 5 minutes at room temperature. The DP liposomes was prepared in a 50 ul OPTI-MEM medium and added to the preformed complex of the TatC peptide and pcDNA3-luciferase vector DNA. The ratio of each component in the triple complex of the TatC peptide/DNA/DP liposomes was adjusted to 3:1:5 respectively. The triple complex of TatC peptide/DNA/DP liposomes was incubated for 10 minutes at room temperature and used for transfection into cells. After 5 hr incubation, 300 ul/well of the OPTI-MEM medium containing 20% Fetal Bovine Serum (FBS) was added into each transfection well. Further incubation for 16 hours was carried out before measuring transfection efficiency in luciferase activity using a luciferase assay kit (Promega, USA). To check luciferase activity of the pcDNA3-luciferase vector DNA, the following procedure was adopted. […]
In order to test transfection efficiency of the triple complex, TatC peptide and liposomes (DP or LFA) were mixed with plasmid DNA in various ratios. […] Luciferase activity was then measured as described in Example 3.1.
The TatC peptide shown in Example 2.1 was modified with RGD amino acid sequence at both N-and C-termini. […] Luciferase activity was measured for each transfected cells as described in Example 3.1. […]

Regarding RGDRKKRRQRRRPPQCRGD (RGD-TatC-RGD), in the experiment on HeLa cells, the “luciferase activity for various peptides” value was “markedly higher luciferase activity”.

“RKKRRQRRRPPQ (Tat) [Tat peptide containing the NLS motif without any modification, control, reference compound]”: in the experiment with HeLa cells, the “luciferase activity for various peptides” value is “comparably low”.

As to RKKRRQRRRPPQC (TatC), the luciferase activity result in experiment [1] (triple complex TatC peptide/DNA/DP, compared to DP liposomes alone, FIG. 6) was “remarkably higher luciferase activity”; in experiment [1] (triple complex TatC peptide/DNA/LFA, compared to liposomes alone, FIG. 7) it was “Analogous results”; in the experiment on cells (triple complex TatC peptide/DNA/DP liposomes 3:1:5, compared to DP liposomes alone, FIG. 1) it was “significantly enhances luciferase activity”. For the same sequence, the “transfection efficiency according to mixing order” value in the experiment on cells (TatC peptide and DNA mixed first, then cationic liposome (LFA), compared with other mixing orders, FIG. 2) is given as “highest”. The “transfection activity (luciferase)” value with cells (TatC peptide/DNA/LFA liposome complex compared to LFA liposomes only, FIG. 1) was “higher transfection activity”. Also, the “cellular uptake of FITC-labeled oligonucleotides (FITC-fluorescence)” value in the experiment on WRT7/P2 cells is reported as “much higher”. The “expression of the β-galactosidase gene in kidney” value with kidney of SD rats was “observed only in the group treated with the complex composed of TatC/DNA/liposomes”. In the experiment with HeLa cells, the “luciferase activity for various peptides” value was “markedly higher luciferase activity”. Moreover, the “luciferase activity with or without 10% FBS” value in the experiment on HeLa cells (TatC/DNA(pcDNA3-luc)/DP liposomes, HeLa, FIG. 13A) is on record as “higher in medium containing serum”; in the experiment with K562 cells it was “higher in medium containing serum”.

As to RKKRRQRRRPPQCRGDRGD (TatC-RGD-RGD), the “luciferase activity for various peptides” value in the experiment with HeLa cells is recorded as “markedly higher luciferase activity”.

For “RRKRQRKRRPQP (Scrambled Tat(Sc-Tat)) [scrambled Tat peptide with random disturbance of the NLS motif, negative control, reference compound]”, the “luciferase activity for various peptides” value with HeLa cells is recorded as “comparably low”.
